Patent US20250388553A1 (Incyte Corporation, priority 2018, published 2025)
Counter-ions that a name gives are not always drawn. Like-named read-outs stand apart in the source and are kept apart here.

How the values were obtained:
[1] = molecular target: PI3Kγ (p110γ) Recombinant Human Protein (Homo sapiens (Human), UniProt P48736); experiment: PI3K-γ scintillation proximity assay; assay type: biochemical
[2] = molecular target: PI3Kδ (p1106/p85a) Recombinant Human Protein (Homo sapiens (Human), UniProt O00329); experiment: PI3Kδ scintillation proximity assay; assay type: biochemical
[3] = tested on: Phosphorylated Ribosomal Protein S6 (RPS6) in THP-1 cells; experiment: THP-1 RPS6 ELISA assay; assay type: cell-based, Human; details: Table A3, THP-1 cells, 10 nM MCP-1, phospho-RPS6 ELISA, read-out: PI3Kγ_THP1_RPS6_ELISA IC50
Description: Example A. THP-1 RPS6 ELISA Assay
To measure the Phosphorylated Ribosomal Protein S6 (RPS6) in cell lysates, THP-1 cells (Human Acute Monocytic Leukemia) are purchased from ATCC (Manassas, VA) and maintained in RPMI with 10% FBS (Gibco/Life Technologies, Carlsbad, CA). For the assay, THP-1 cells are serum starved overnight in RPMI, then plated in RPMI (2×10^5 cells/well in […]) into 96-well flat-bottom tissue culture treated plates (Corning, Corning, NY), in the presence or absence of a concentration range of test compounds. Covered plates are incubated for 2 hours at 37° C., 5% CO2 then treated with or without 10 nM MCP-1(MYBioSource, San Diego, CA) for 15 minutes at 37° C., 5% CO2. Plates are centrifuged at 1600 RPM and supernatants are removed. Cells are lysed in Lysis Buffer (Cell Signaling, Danvers, MA) with Protease Inhibitor (Calbiochem/EMD, Germany), PMSF (Sigma, St Louis MO), HALTS (Thermo Fisher, Rockford, IL) for 30 min on wet ice. Cell lysates are frozen at −80° C. before testing. The lysates are tested in the Human/Mouse/Rat Phospho-RPS6 ELISA (R&D Systems, Inc. Minn, MN). The plate is measured using a microplate reader (SpectraMax M5—Molecular Devices, LLC Sunnyvale, CA) set to 450 nm with a wavelength correction of 540. IC50 determination is performed by fitting the curve of inhibitor percent inhibition versus the log of the inhibitor concentration using the GraphPad Prism 5.0 software.
The compounds of the Examples were tested in the assays described in Examples A, B and C and found to have the IC50s are shown in Tables A1, A2, A3 and A4.

[4] = Table A3, scintillation proximity assay, recombinant human p110γ
[5] = Table A3, scintillation proximity assay, recombinant human PI3Kδ

PI3Kδ (p1106/p85a) Recombinant Human Protein, sequence (O00329 whole entry): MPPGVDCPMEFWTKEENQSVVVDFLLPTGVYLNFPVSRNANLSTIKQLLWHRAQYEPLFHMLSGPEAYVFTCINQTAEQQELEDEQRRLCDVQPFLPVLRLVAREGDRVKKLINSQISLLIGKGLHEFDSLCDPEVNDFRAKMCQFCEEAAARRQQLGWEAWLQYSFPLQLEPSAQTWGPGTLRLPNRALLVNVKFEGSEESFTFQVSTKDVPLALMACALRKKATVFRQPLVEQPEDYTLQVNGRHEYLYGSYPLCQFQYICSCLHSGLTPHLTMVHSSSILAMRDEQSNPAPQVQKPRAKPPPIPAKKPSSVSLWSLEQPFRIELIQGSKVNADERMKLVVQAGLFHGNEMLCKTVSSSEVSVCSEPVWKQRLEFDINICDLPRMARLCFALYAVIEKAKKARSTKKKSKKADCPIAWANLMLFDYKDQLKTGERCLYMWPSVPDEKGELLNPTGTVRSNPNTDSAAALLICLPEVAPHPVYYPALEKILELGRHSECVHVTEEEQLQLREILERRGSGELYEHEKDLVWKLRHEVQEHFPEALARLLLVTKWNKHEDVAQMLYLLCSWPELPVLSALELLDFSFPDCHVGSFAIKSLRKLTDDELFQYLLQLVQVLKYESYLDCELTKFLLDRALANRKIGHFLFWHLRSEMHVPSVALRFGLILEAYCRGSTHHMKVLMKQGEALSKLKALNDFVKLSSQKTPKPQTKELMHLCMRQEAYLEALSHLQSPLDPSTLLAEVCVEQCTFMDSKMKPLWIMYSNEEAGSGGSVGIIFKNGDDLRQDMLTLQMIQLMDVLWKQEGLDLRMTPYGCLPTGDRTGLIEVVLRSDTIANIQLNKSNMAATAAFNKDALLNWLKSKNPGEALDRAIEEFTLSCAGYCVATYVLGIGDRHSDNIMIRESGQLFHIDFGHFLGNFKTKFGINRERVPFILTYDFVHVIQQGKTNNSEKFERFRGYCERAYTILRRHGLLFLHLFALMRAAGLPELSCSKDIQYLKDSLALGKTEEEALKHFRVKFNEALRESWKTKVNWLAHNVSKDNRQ
PI3Kδ (p1106/p85a) Recombinant Human Protein, sequence (P27986 whole entry partner): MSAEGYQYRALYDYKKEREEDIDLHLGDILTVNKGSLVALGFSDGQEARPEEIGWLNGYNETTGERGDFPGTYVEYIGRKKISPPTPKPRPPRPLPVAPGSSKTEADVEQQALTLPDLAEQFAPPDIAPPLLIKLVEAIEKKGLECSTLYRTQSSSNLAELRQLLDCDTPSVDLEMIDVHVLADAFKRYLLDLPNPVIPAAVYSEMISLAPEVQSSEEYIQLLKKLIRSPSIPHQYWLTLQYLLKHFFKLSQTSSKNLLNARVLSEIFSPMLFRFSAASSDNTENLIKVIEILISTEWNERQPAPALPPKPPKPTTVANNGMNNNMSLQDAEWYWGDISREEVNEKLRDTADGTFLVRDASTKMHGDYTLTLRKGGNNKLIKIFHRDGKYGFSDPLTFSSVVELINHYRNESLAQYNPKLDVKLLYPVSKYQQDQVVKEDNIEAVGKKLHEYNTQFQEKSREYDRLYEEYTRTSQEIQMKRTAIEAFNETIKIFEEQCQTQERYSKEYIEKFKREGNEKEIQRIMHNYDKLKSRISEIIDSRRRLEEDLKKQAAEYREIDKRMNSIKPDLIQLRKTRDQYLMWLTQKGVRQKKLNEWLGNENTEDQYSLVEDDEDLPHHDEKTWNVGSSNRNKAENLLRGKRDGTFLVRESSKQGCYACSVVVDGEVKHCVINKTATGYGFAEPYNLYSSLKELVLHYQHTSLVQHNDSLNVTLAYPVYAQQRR
PI3Kγ (p110γ) Recombinant Human Protein, sequence (P48736 whole entry): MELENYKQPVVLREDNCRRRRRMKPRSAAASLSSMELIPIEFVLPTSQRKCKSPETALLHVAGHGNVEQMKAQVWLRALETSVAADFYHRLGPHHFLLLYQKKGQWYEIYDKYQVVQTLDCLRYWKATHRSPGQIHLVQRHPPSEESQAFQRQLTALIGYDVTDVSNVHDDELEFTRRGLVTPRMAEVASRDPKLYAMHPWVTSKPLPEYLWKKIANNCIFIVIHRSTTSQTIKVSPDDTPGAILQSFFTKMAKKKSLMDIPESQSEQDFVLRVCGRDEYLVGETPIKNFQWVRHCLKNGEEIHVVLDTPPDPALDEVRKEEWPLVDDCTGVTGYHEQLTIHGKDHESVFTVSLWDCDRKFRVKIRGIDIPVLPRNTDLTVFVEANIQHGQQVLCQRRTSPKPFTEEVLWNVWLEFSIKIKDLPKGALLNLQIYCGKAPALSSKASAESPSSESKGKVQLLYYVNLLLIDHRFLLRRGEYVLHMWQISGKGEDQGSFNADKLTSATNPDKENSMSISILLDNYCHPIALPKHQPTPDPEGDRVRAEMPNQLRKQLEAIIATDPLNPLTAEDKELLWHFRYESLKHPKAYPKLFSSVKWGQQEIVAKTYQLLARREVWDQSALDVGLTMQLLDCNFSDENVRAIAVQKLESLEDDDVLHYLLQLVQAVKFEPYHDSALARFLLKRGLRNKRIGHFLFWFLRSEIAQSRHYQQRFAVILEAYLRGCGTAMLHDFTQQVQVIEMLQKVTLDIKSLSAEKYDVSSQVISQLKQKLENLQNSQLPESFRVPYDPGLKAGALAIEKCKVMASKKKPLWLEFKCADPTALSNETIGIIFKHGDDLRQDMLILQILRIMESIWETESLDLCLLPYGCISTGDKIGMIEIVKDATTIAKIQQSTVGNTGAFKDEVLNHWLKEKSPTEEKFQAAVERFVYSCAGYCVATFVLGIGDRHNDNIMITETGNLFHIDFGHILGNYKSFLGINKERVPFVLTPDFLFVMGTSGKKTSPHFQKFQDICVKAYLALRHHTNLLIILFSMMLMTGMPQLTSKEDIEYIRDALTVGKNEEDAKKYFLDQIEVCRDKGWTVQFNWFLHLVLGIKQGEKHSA

| Compound | IC50 [1, 4] [nM] | IC50 [2, 5] [nM] | IC50 ([3]; Homo sapiens) [nM] | IC50 [1] [nM] | IC50 [2] [nM] | IC50 [3] [nM] |
| --- | --- | --- | --- | --- | --- | --- |
| Cc1ccc(C(O)(C(N)=O)C(F)(F)F)cc1-c1cnc(N)c(-c2cnnn2C)n1 (stereo not drawn) [Example 74, 2-(3-(5-amino-6-(1-methyl-1H-1,2,3-triazol-5-yl)pyrazin-2-yl)-4-methylphenyl)-3,3,3-trifluoro-2-hydroxypropanamide trifluoroacetate] | < 100 | < 100 | < 100 | – | – | – |
| Cc1ccc(C(O)(C(N)=O)C(F)(F)F)cc1-c1cnc(N)c(-c2cnn(CC(F)(F)F)c2)n1 (stereo not drawn) [Example 75, 2-(3-(5-amino-6-(1-(2,2,2-trifluoroethyl)-1H-pyrazol-4-yl)pyrazin-2-yl)-4-methylphenyl)-3,3,3-trifluoro-2-hydroxypropanamide trifluoroacetate] | < 100 | < 100 | < 100 | – | – | – |
| Cc1ccc(C(O)(C(N)=O)C(F)(F)F)cc1-c1cnc(N)c(-c2cnn(C(C)(C)C#N)c2)n1 (stereo not drawn) [Example 76, 2-(3-(5-amino-6-(1-(2-cyanopropan-2-yl)-1H-pyrazol-4-yl)pyrazin-2-yl)-4-methylphenyl)-3,3,3-trifluoro-2-hydroxypropanamide trifluoroacetate] | < 100 | < 100 | < 100 | – | – | – |
| Cc1ccc(C(O)(C(N)=O)C(F)(F)F)cc1-c1cnc(N)c(-c2cnn(C3CCOCC3)c2)n1 (stereo not drawn) [Example 77, 2-(3-(5-amino-6-(1-(tetrahydro-2H-pyran-4-yl)-1H-pyrazol-4-yl)pyrazin-2-yl)-4-methylphenyl)-3,3,3-trifluoro-2-hydroxypropanamide trifluoroacetate] | < 100 | < 100 | < 100 | – | – | – |
| Cc1ccc(C(O)(C(N)=O)C(F)(F)F)cc1-c1cnc(N)c(-c2cnn(CC3(C#N)CC3)c2)n1 (stereo not drawn) [Example 78, 2-(3-(5-amino-6-(1-((1-cyanocyclopropyl)methyl)-1H-pyrazol-4-yl)pyrazin-2-yl)-4-methylphenyl)-3,3,3-trifluoro-2-hydroxypropanamide trifluoroacetate] | – | – | < 100 | < 100 | < 100 | – |
| COCCn1cc(-c2nc(-c3cc(C(O)(C(N)=O)C(F)(F)F)ccc3C)cnc2N)cn1 (stereo not drawn) [Example 79, 2-(3-(5-amino-6-(1-(2-methoxyethyl)-1H-pyrazol-4-yl)pyrazin-2-yl)-4-methylphenyl)-3,3,3-trifluoro-2-hydroxypropanamide trifluoroacetate] | < 100 | < 100 | < 100 | – | – | – |
| CNC(=O)c1ccc(-c2nc(-c3cc(C(O)(C(N)=O)C(F)(F)F)ccc3C)cnc2N)cn1 (stereo not drawn) [Example 80, 5-(3-amino-6-(5-(3-amino-1,1,1-trifluoro-2-hydroxy-3-oxopropan-2-yl)-2-methylphenyl)pyrazin-2-yl)-N-methylpicolinamide bistrifluoroacetate] | < 100 | 100 to 500 | 500 to 1000 | – | – | – |
| Cc1ccc(C(O)(C(N)=O)C(F)(F)F)cc1-c1cnc(N)c(-c2cncnc2)n1 (stereo not drawn) [Example 81, 2-(3-(5-amino-6-(pyrimidin-5-yl)pyrazin-2-yl)-4-methylphenyl)-3,3,3-trifluoro-2-hydroxypropanamide trifluoroacetate] | < 100 | 100 to 500 | 100 to 500 | – | – | – |
| Cc1ccc(-c2nc(-c3cc(C(O)(C(N)=O)C(F)(F)F)ccc3C)cnc2N)cn1 (stereo not drawn) [Example 82, 2-(3-(5-amino-6-(6-methylpyridin-3-yl)pyrazin-2-yl)-4-methylphenyl)-3,3,3-trifluoro-2-hydroxypropanamide bistrifluoroacetate] | < 100 | < 100 | 100 to 500 | – | – | – |
| Cc1ccc(C(O)(C(N)=O)C(F)(F)F)cc1-c1cnc(N)c(-c2ccc(C(F)(F)F)nc2)n1 (stereo not drawn) [Example 83, 2-(3-(5-amino-6-(6-(trifluoromethyl)pyridin-3-yl)pyrazin-2-yl)-4-methylphenyl)-3,3,3-trifluoro-2-hydroxypropanamide bistrifluoroacetate] | < 100 | < 100 | 100 to 500 | – | – | – |
| Cc1ccc(C(O)(C(N)=O)C(F)(F)F)cc1-c1cnc(N)c(-c2cnc(C3CC3)s2)n1 (stereo not drawn) [Example 84, 2-(3-(5-amino-6-(2-cyclopropylthiazol-5-yl)pyrazin-2-yl)-4-methylphenyl)-3,3,3-trifluoro-2-hydroxypropanamide trifluoroacetate] | < 100 | < 100 | 100 to 500 | – | – | – |
| Cc1ccc(C(O)(C(N)=O)C(F)(F)F)cc1-c1cnc(N)c(-c2ccnc(CO)c2)n1 (stereo not drawn) [Example 85, 2-(3-(5-amino-6-(2-(hydroxymethyl)pyridin-4-yl)pyrazin-2-yl)-4-methylphenyl)-3,3,3-trifluoro-2-hydroxypropanamide bistrifluoroacetate] | < 100 | < 100 | 100 to 500 | – | – | – |
| Cc1ccc(C(O)(C(N)=O)C(F)(F)F)cc1-c1cnc(N)c(-c2cnn(CC3CC3)c2)n1 (stereo not drawn) [Example 86, 2-(3-(5-amino-6-(1-(cyclopropylmethyl)-1H-pyrazol-4-yl)pyrazin-2-yl)-4-methylphenyl)-3,3,3-trifluoro-2-hydroxypropanamide trifluoroacetate] | < 100 | < 100 | < 100 | – | – | – |
| Cc1ccc(C(O)(C(N)=O)C(F)(F)F)cc1-c1cnc(N)c(-c2ccc(CC#N)cc2)n1 (stereo not drawn) [Example 87, 2-(3-(5-amino-6-(4-(cyanomethyl)phenyl)pyrazin-2-yl)-4-methylphenyl)-3,3,3-trifluoro-2-hydroxypropanamide trifluoroacetate] | < 100 | < 100 | 100 to 500 | – | – | – |
| Cc1ccc(C(O)(C(N)=O)C(F)(F)F)cc1-c1cnc(N)c(-c2ccc(CO)cc2)n1 (stereo not drawn) [Example 88, 2-(3-(5-amino-6-(4-(hydroxymethyl)phenyl)pyrazin-2-yl)-4-methylphenyl)-3,3,3-trifluoro-2-hydroxypropanamide trifluoroacetate] | < 100 | < 100 | 100 to 500 | – | – | – |
| CNC(=O)c1ccc(-c2nc(-c3cc(C(O)(C(N)=O)C(F)(F)F)ccc3C)cnc2N)cc1 (stereo not drawn) [Example 89, 4-(3-amino-6-(5-(3-amino-1,1,1-trifluoro-2-hydroxy-3-oxopropan-2-yl)-2-methylphenyl)pyrazin-2-yl)-N-methylbenzamide trifluoroacetate] | < 100 | < 100 | 100 to 500 | – | – | – |
| Cc1ccc(C(O)(C(N)=O)C(F)(F)F)cc1-c1cnc(N)c(-c2cccc(C(C)C)c2)n1 (stereo not drawn) [Example 90, 2-(3-(5-amino-6-(3-isopropylplienyl)pyrazin-2-yl)-4-methylphenyl)-3?3,3-trifluoro-2-hydroxypropanamide trifluoroacetate] | < 100 | 100 to 500 | – | – | – | 100 to 500 |
| Cc1ccc(C(O)(C(N)=O)C(F)(F)F)cc1-c1cnc(N)c(-c2ccc(C(C)(C)O)cc2)n1 (stereo not drawn) [Example 91, 2-(3-(5-amino-6-(4-(2-hydroxypropan-2-yl)phenyl)pyrazin-2-yl)-4-methylphenyl)-3,3,3-trifluoro-2-hydroxypropanamide trifluoroacetate] | < 100 | < 100 | < 100 | – | – | – |
| Cc1ccc(C(O)(C(N)=O)C(F)(F)F)cc1-c1cnc(N)c(-c2ccc(C3CC3)cc2)n1 (stereo not drawn) [Example 92, 2-(3-(5-amino-6-(4-cyclopropylphenyl)pyrazin-2-yl)-4-methylphenyl)-3,3,3-trifluoro-2-hydroxypropanamide trifluoroacetate] | < 100 | 100 to 500 | 100 to 500 | – | – | – |
| Cc1ccc(C(O)(C(N)=O)C(F)(F)F)cc1-c1cnc(N)c(-c2ccc(B(O)O)cc2)n1 (stereo not drawn) [Example 97, (4-(3-Amino-6-(5-(3-amino-1,1,1-trifluoro-2-hydroxy-3-oxopropan-2-yl)-2-methylphenyl)pyrazin-2-yl)phenyl)boronic Acid] | < 100 | < 100 | 100 to 500 | – | – | – |
| Cc1ccc(C(O)(CNC=O)C(F)(F)F)cc1-c1cnc(N)c(-c2cn[nH]c2)n1 (stereo not drawn) [Example 103, N-(2-(3-(5-amino-6-(1H-pyrazol-4-yl)pyrazin-2-yl)-4-methylphenyl)-3,3,3-trifluoro-2-hydroxypropyl)formamide trifluoroacetate] | < 100 | 100 to 500 | 100 to 500 | – | – | – |
